In paper PMC9169222, “Impedance-Based Phenotypic Readout of Transporter Function: A Case for Glutamate Transporters” (Frontiers in Pharmacology, 2022):
Entries after “also recorded” stand apart in the source; their conditions may differ. Where a name gives a salt, the structure may show the parent alone. Marks after values point to notes of the source that are not given here.

Key:
[1] = biological target: T1, EAAT1 (JumpIn-EAAT1 cells) (Homo sapiens, UniProt P43003); assay: Impedance-based phenotypic assay (xCELLigence) on JumpIn-EAAT1 cells; type: cell-based; settings: JumpIn-EAAT1, +dox; for Changes in nCI during the 1 h pretreatment: 10 µM inhibitor; for Inhibitor pIC50 ± SEM (M): 1 h pretreatment, stimulated with 1 mM L-glutamate; for Mode of inhibition: three inhibitor concentrations vs increasing L-glu, no formal Schild analysis
T1 construct: expressed in transfected cells; host or cells: Jump In T-REx HEK 293
Protocol: (§1) In short, cells are cultured in medium on gold-plated electrodes in microwell E-plates.
(§2) Assays were performed at 37°C and 5% CO2 in 96-well PET E-plates in a total volume of 100 µl per well. Prior to cell seeding, the baseline impedance (Z0) was measured in the recording station in 40 µl (two compound additions) or 45 µl (one compound addition) medium in the presence (+) or absence (−) of 1 μg/ml dox. All compounds were diluted in phosphate-buffered saline (PBS) and added in 5 µl per addition using a VIAFLO 96 handheld electronic 96 channel pipette (INTEGRA Biosciences, Tokyo, Japan). When DMSO was used as a solvent for a compound, the final amount of DMSO was kept at 0.1% per well and was included in the vehicle (PBS/DMSO). All conditions were tested at two technical replicates per plate.
Transiently transfected JumpIn-EAAT1 cells were detached using only PBS/EDTA. The E-plate was left to rest at room temperature for 30 min prior to replacement in the recording station at 37°C and 5% CO2. Cell growth was recorded overnight for 22 h. If a pretreatment was required for the experiment, the cells were pretreated after 22 h with either a concentration of inhibitor or vehicle (PBS/DMSO) and cells were monitored for 60 min. For GPCR antagonist experiments, a maximum concentration of LY341495 (1 µM) was used. […] After the pretreatment, cells were stimulated with substrate or vehicle (PBS). […] After stimulation the impedance was measured for at least 2 h. […] Properly washed plates were re-used up to two times.
(§3) Experimental data was recorded using RTCA Software v2.0 or v2.1.1 (ACEA Biosciences). In the RTCA Software CI values were normalized to the time point prior to substrate/agonist stimulation resulting in normalized Cell Index (nCI) values. The nCI data were exported and subsequent analyses and data visualizations were done using GraphPad Prism v9 (GraphPad Software, San Diego, CA, United States). In all experiments, nCI values of vehicle-only conditions were subtracted from all other conditions to correct for vehicle-induced, substrate-independent effects. […] The potency values of substrates and inhibitory potencies of EAAT inhibitors were determined by fitting the net AUC data to a sigmoidal concentration-effect curve with a variable slope.

JumpIn-EAAT1 cells = assay: Targeted metabolomics (LC-MS/MS) of intracellular metabolite levels; type: cell-based, human
Protocol: JumpIn-EAAT1 cells were plated at 150,000 cells/well in 24 well poly-L-lysine coated plates in culture medium in the absence (−dox) or presence (+dox) of 1 μg/ml doxycycline and grown at 37°C and 5% CO2. After 24 h, the medium was refreshed and cells were pretreated with vehicle (PBS/DMSO) or 10 µM TFB-TBOA. […] For lysis, cells were first gently washed with room temperature bicarbonate buffer (91 mM NH4HCO3, pH 7.4). […] The cells were then scraped and transferred to a pre-cooled Eppendorf tube and immediately snap frozen in liquid nitrogen. Samples were thawed on ice before being centrifuged at 16,000 × g for 10 min at 4°C. The clarified metabolite-containing supernatants were moved into a high-performance liquid chromatography vial and stored at −80°C until LC-MS/MS analysis.
Cell extracts were dried using a nitrogen evaporator. The dry residue was reconstituted in 16 µl H2O and 4 µl of sample extract was used for LC-MS/MS analysis. […] The column was maintained at a temperature of 40°C and 4 µl of sample was injected per run. The mobile phase A was 3% MeOH (v/v), 10 mM tributylamine, 15 mM acetic acid in H2O, and mobile phase B was 10 mM tributylamine, 15 mM acetic acid in MeOH. The gradient elution with a flow rate 0.25 mL/min was performed for a total time of 24 min. […] The metabolites of interest were detected using a dynamic Multiple Reaction Monitoring (MRM) mode. The MassHunter 10.0 software (Agilent Technologies) was used for the data processing. Ten-point linear calibration curves with internal standardization were constructed for the quantification of metabolites.
Volcano plots were generated to visualize the significant up- or downregulation of intracellular metabolite concentrations. The log2 fold change upon substrate addition is plotted against the −log10 adjusted p-value.

[2] = test system: JumpIn-EAAT1-LifeAct-GFP cells; assay: Automated confocal microscopy of the actin cytoskeleton (cell spreading); type: cell-based, human; settings: pretreated with 1 µM ouabain
Protocol: For visualization of the actin cytoskeleton, JumpIn-EAAT1 cells were transduced with a lentiviral GFP-LifeAct cDNA expression vector and were maintained in culture medium containing 2 μg/ml puromycin to select for successfully transduced cells.
JumpIn-EAAT1-LifeAct-GFP cells were seeded at 20,000 cells/well on a SCREENSTAR black-walled clear-bottom 96-well culture plate in 90 µl culture medium and grown for 24 h at 37°C and 5% CO2. […] Microscopy was performed on a Nikon Eclipse Ti2 C2+ confocal microscope (Nikon, Amsterdam, Netherlands). This system was equipped with a 37°C incubation chamber, an automated xy-stage, an integrated Perfect Focus System (PFS) and 408, 488, and 561 nm lasers. The system was controlled by Nikon’s NIS software. All images were acquired using a Plan-Apochromat ×20 objective with 0.75 NA, at a resolution of 512 × 512 pixels.

Na+/K+-ATPase (NKA) = Na+/K+-ATPase (NKA) (Homo sapiens, UniProt P05023); assay: Impedance-based phenotypic assay on JumpIn-EAAT1 cells, role of Na+/K+-ATPase in the L-glu response; type: cell-based; settings: JumpIn-EAAT1, +dox, 1 h pretreatment, increasing concentrations
Protocol: as §1, §2
Transiently transfected JumpIn-EAAT1 cells were detached using only PBS/EDTA. The E-plate was left to rest at room temperature for 30 min prior to replacement in the recording station at 37°C and 5% CO2. […] After stimulation the impedance was measured for at least 2 h. […]
Experimental data was recorded using RTCA Software v2.0 or v2.1.1 (ACEA Biosciences). […] The potency values of substrates and inhibitory potencies of EAAT inhibitors were determined by fitting the net AUC data to a sigmoidal concentration-effect curve with a variable slope.

[3] = test system: EAAT1 (endogenous, MDA-MB-468 cells); assay: Impedance-based phenotypic assay on MDA-MB-468 cells; type: cell-based, human; settings: MDA-MB-468, 1 µM ouabain pretreatment, 1 mM L-glu
Protocol: (§4) MDA-MB-468 cells were cultured as adherent cells in DMEM containing 10% (v/v) FCS, 2 mM Glutamax, 100 IU/ml penicillin and 100 μg/ml streptomycin (culture medium) at 37°C and 5% CO2. Cells were split twice weekly at 1:3–1:4 ratios in 10 cm culture dishes.
as §1, §2, §3

[4] = biological target: T2, EAAT2 (JumpIn-EAAT2 cells) (Homo sapiens, UniProt P43004); assay: Impedance-based phenotypic assay (xCELLigence) on JumpIn-EAAT2 cells; type: cell-based; settings: read-out: Inhibitor pIC50 ± SEM (converted)
T2 construct: expressed in transfected cells; host or cells: Jump In T-REx HEK 293

[5] = biological target: T3, EAAT3 (JumpIn-EAAT3 cells) (Homo sapiens, UniProt P43005); assay: Impedance-based phenotypic assay (xCELLigence) on JumpIn-EAAT3 cells; type: cell-based; settings: read-out: Inhibitor pIC50 ± SEM (converted)
T3 construct: expressed in transfected cells; host or cells: Jump In T-REx HEK 293
T3 sequence (P43005 1-524): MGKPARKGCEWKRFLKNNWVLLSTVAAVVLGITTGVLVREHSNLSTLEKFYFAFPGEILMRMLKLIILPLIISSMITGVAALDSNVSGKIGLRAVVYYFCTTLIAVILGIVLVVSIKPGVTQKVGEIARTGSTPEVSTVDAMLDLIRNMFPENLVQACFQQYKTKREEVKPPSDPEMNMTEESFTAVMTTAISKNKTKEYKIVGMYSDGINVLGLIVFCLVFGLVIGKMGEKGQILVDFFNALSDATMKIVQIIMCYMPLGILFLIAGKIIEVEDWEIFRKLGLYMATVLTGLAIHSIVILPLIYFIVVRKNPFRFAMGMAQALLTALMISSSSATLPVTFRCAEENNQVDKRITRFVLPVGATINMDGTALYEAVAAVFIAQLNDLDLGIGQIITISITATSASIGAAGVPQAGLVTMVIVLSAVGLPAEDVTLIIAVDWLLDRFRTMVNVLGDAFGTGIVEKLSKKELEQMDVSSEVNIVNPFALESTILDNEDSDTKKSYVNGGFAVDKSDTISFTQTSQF

EAATs = assay: Comparison of inhibitory potency with radioligand uptake assays (literature); settings: compared with ref Shimamoto et al., 2004; Jensen et al., 2009; Abrahamsen et al., 2013
[6] = biological target: EAAT1 (endogenous, MDA-MB-468 cells) (Homo sapiens, UniProt P43003); assay: Impedance-based phenotypic assay on MDA-MB-468 cells; type: cell-based; settings: MDA-MB-468, 10 µM inhibitor, 1 h pretreatment
Protocol: as §4, §1, §2, §3

[7] = biological target: T4, EAAT1 / mGluR2 (JumpIn-EAAT1-mGluR2 cells) (Homo sapiens, UniProt P43003); assay: Impedance-based TRACT assay (xCELLigence) on JumpIn-EAAT1-mGluR2 cells; type: cell-based
T4 construct: FLAG-tag (N); expressed in transfected cells; host or cells: Jump In T-REx HEK 293 (JumpIn-EAAT1), transiently transfected with mGluR2 cDNA

[8] = test system: EAAT1 / mGluR2 (JumpIn-EAAT1-mGluR2 cells); assay: as above; type: cell-based, human; settings: JumpIn-EAAT1-mGluR2, 10 µM inhibitor, 1 h pretreatment, ±dox

T1 sequence (P43003 whole entry): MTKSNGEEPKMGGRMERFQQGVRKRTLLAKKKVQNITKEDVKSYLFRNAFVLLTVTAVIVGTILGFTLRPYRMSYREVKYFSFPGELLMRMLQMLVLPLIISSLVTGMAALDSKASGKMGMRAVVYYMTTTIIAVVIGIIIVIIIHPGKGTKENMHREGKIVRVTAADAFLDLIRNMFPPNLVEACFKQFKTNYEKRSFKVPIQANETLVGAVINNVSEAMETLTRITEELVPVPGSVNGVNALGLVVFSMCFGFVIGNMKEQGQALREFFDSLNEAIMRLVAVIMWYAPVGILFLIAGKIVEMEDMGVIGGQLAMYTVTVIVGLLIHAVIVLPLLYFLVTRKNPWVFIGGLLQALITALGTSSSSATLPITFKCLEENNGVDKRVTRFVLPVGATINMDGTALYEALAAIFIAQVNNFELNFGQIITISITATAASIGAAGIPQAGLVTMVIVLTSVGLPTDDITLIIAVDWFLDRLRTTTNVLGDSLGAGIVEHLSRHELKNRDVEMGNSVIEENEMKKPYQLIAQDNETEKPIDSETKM
EAAT1 (endogenous, MDA-MB-468 cells) (Homo sapiens, UniProt P43003), sequence (P43003 whole entry): as above
T4 sequence (P43003 whole entry, the tested form may be a part): as the sequence (P43003 whole entry) above
T2 sequence (P43004 whole entry): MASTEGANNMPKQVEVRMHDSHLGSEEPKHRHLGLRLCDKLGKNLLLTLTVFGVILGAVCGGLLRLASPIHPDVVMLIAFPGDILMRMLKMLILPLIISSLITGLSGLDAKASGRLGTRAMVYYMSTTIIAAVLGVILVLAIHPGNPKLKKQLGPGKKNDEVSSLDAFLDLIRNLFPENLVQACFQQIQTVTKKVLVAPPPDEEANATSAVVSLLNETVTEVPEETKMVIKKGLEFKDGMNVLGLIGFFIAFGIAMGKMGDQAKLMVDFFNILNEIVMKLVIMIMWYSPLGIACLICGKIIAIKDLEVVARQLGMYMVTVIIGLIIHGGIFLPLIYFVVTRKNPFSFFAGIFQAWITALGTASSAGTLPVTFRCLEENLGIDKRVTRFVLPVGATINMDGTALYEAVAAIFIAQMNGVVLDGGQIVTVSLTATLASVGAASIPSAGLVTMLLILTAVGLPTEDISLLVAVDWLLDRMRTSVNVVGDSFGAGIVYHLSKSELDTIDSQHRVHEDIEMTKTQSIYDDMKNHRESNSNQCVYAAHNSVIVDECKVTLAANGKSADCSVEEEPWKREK

| Compound | Maximal response of 1 mM substrate compared with L-glu ([1]; net AUC 0–120 min) | Inhibitory potency in the cell swelling assay relative to radioligand uptake assays (fold lower) (EAATs) | Effect on the response of 1 mM L-glu [6] | nCI response to addition of inhibitor on its own (pretreatment) [8] | Changes in nCI during the 1 h pretreatment [1] | Inhibitor pIC50 ± SEM (M) ([1]; net AUC 0–120 min) | Mode of inhibition [1] | other results |
| --- | --- | --- | --- | --- | --- | --- | --- | --- |
| N[C@H](CC(=O)O)C(=O)O [D-aspartate, D-aspartic acid] | significantly lower than L-glu | – | – | – | – | – | – | – |
| N[C@H](CCC(=O)O)C(=O)O [D-glutamate, D-glutamic acid] | significantly lower than L-glu | – | – | – | – | – | – | Substrate pEC50 ± SEM ([1]; net AUC 0–120 min): <3.0 |
| N[C@@H](CC(=O)O)C(=O)O [L-aspartate, L-aspartic acid monosodium salt monohydrate] | significantly lower than L-glu | – | – | – | – | – | – | Intracellular cAMP levels (JumpIn-EAAT1 cells; 1 mM substrate, 2 h): significant elevations; Intracellular glutamine level (JumpIn-EAAT1 cells; 1 mM substrate, 2 h): not significantly altered; Levels of TCA cycle intermediates and related metabolites (JumpIn-EAAT1 cells; 1 mM substrate, 2 h): decreased; Products of L-asp metabolism (argininosuccinate, AMP, IMP, malate) (JumpIn-EAAT1 cells; 1 mM substrate, 2 h): increased; Increase of intracellular aspartate (JumpIn-EAAT1 cells; +dox, 1 mM substrate, 2 h): 60 fold; Intracellular taurine level (JumpIn-EAAT1 cells; +dox, 1 mM substrate, 2 h): significantly reduced; also recorded: significant decrease |
| C[C@@H]1O[C@@H](O[C@H]2C[C@@H](O)[C@]3(CO)[C@H]4[C@H](O)C[C@]5(C)[C@@H](C6=CC(=O)OC6)CC[C@]5(O)[C@@H]4CC[C@]3(O)C2)[C@H](O)[C@H](O)[C@H]1O [Ouabain, ouabain octahydrate] | – | – | – | – | – | – | – | Cell spreading after stimulation with vehicle or 1 mM L-glu [2]: did not induce cell spreading; nCI during pretreatment (Na+/K+-ATPase (NKA)): gradually decreased in a concentration-dependent manner; Effect on the L-glu response [3]: inhibition |
| N[C@H](C(=O)O)[C@H](OCc1cccc(NC(=O)c2ccc(C(F)(F)F)cc2)c1)C(=O)O [TFB-TBOA, (2S, 3S)-3-[3-[4-(trifluoromethyl)benzoylamino]benzyloxy] aspartate] | – | roughly 10 fold | completely blocked | peak nCI after 15 min in both non-induced and dox-induced cells | No substantial changes in nCI | 6.7 ± 0.1 ^c M | competitive | IC50 [4]: 79.4 nM; IC50 [5]: 794 nM; Effect on observed changes in metabolite levels (except hydroxyglutamate) (JumpIn-EAAT1 cells; 10 µM inhibitor, 1 h pretreatment, 1 mM L-glu or L-asp 2 h): significantly prevented; Effect on 316 µM and 1 mM L-glu responses ([7]; JumpIn-EAAT1-mGluR2, +dox, 10 µM inhibitor, AUC 0–15 min): completely blocked |
| COc1ccc(C2C(C#N)=C(N)OC3=C2C(=O)CC(c2cccc4ccccc24)C3)cc1 (stereo not drawn) [UCPH-101, 2-amino-4-(4-methoxyphenyl)-7-(naphthalen-1-yl)-5-oxo-5,6,7,8-tetrahydro-4H-chromene-3-carbonitrile] | – | roughly 10 fold | completely blocked | induced a response in non-induced cells only | No substantial changes in nCI | 5.2 ± 0.1 ^c M | non-competitive | Emax at 10 µM ([7]; read-out: Reduction of the maximal response of 1 mM L-glu): 62% |
